From patent publication US20260364068A1, “ANTIVIRAL USE OF HETEROARYL DERIVATIVE COMPOUND” (UIF (University Industry Foundation), Yonsei University, priority 2022, published 2026)
Where two headings read alike, the source gives them in different places.

Key:
Format in all cases: cell-based
human ANO6 (variant 5) = biological target: T1, human ANO6 (variant 5) (Homo sapiens, UniProt Q4KMQ2); assay: Lact C2 assay (phosphatidylserine externalization scramblase function); conditions: FRT cells expressing human ANO6, ionomycin 10 μM, read-out: % Inhibition (phosphatidylserine externalization inhibitory activity); for inhibition at 0.05 µM: 50 nM
T1 construct: expressed in transfected cells; host or cells: Fisher rat thyroid (FRT) cells
T1 sequence (Q4KMQ2 1-931 isoform Q4KMQ2-2): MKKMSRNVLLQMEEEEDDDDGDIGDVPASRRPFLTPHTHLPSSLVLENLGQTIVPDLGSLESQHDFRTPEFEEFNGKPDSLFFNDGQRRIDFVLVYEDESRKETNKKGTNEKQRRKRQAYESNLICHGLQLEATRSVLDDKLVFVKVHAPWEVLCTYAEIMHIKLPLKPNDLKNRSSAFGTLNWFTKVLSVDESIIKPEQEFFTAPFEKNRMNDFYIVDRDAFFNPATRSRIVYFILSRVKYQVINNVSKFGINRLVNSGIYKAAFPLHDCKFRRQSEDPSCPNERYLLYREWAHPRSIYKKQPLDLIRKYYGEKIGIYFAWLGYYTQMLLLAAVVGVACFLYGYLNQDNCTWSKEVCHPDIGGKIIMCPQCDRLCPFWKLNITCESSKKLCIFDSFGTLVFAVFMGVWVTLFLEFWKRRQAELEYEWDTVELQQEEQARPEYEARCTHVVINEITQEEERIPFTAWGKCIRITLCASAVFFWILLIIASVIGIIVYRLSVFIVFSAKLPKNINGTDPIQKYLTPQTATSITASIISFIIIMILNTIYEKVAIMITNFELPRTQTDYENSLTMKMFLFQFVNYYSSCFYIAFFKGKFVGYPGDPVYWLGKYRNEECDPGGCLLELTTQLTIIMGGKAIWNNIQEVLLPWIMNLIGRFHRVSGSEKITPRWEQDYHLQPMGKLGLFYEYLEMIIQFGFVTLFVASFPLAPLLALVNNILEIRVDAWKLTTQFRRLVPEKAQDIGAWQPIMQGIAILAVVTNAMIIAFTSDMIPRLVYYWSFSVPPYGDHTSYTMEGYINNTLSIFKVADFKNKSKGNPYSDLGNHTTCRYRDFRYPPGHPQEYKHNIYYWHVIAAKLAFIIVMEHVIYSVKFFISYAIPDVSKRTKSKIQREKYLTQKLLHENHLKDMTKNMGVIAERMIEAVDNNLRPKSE
Protocol: Experimental Example 2: Lact C2 Assay (Measuring Phosphatidylserine Externalization Scramblase Function)
Ionomycin (Alomonelab, cat. #I-700), DAPI (Sigma-Aldrich, cat. #D8417), paraformaldehyde (Biosesang, cat. #P2031), Lionheart FX automated fluorescence microscope (BioTek), Gen5™ software program (BioTek), and Image J analysis software program.
Fisher rat thyroid (FRT) cells expressing human ANO6 (variant 5; GenBank accession no. NP_001191732.1) were cultured at 37 °C under 5% CO2 conditions in DMEM/Ham's F-12 (1:1) medium supplemented with 10% Fetal Bovine Serum, 2 mM […], 100 units/mL penicillin, and 100 μg/mL streptomycin.
Fischer Rat Thyroid (FRT) cells (2×10^4 cells/well) expressing human ANO6 (variant 5) were cultured in a 96-well microplate for 24 hours. After the incubation, the cells were treated with compounds dissolved in DMSO to 1% v/v in each well at each concentration (50 nM, 100 nM, and 1 μM) and reacted for 10 minutes. Thereafter, each well was treated with ionomycin to a final concentration of 10 μM, allowed to react for 10 minutes, and then washed with 200 μL PBS. After washing, each well was treated with 50 μL of Lactadherin-C2 (Lact-C2)-GFP mixed in DMEM medium to a final concentration of 500 nM to stain phosphatidylserine, and cultured at 37 °C for 10 minutes. After completion of the reaction, the cells were washed with 200 μL PBS, and fixed with 4% paraformaldehyde for 5 minutes at room temperature. For morphological analysis, DAPI solution was added, and the cells were incubated for 15 minutes, followed by washing with PBS. The fluorescence intensity of Lact-C2-GFP bound to phosphatidylserine on the cell surface was measured using an automated fluorescence microscope. For quantitative analysis of the fluorescence intensity of Lact-C2-GFP, BioTek Gen5™ software and Image J analysis software programs were used.
Phosphatidylserine externalization inhibitory activity (%) by the compound was calculated through the following analysis method. Specifically, the background fluorescence value was subtracted from the measured Lact-C2-GFP fluorescence value, and the fluorescence value of the ionomycin non-treatment group and the ionomycin-treatment group in the same row where each test group was located in a 96-well microplate were calculated. In order to calculate the inhibitory activity (%) by the compound, the relative inhibitory activity was calculated by setting the compound and ionomycin non-treatment group to 100% inhibitory activity and the ionomycin alone treatment group to 0% inhibitory activity. To derive the results, the test was repeated three times, and the average values of the results were classified according to the range below and shown in Table 4 below (A: >60% inhibition, B: 30 to 60% inhibition, N/A: no test).

[1] = Cell viability measurement (MTS), Calu-3 cells; conditions: human
In short: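 Calu-3 cells at about 20% confluency treated with compounds at 1, 3 and 10 μM (0.5% v/v DMSO) for 48 h at 37 °C. MTS added for 1 h; A490 minus A690 background, normalized to DMSO control as 100%; mean of 2–6 repeats, binned into viability ranges.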

[2] = tested on: Severe Acute Respiratory Syndrome Coronavirus Type 2; assay: microbe, parasite or virus in culture; conditions: Vero, 10 uM, virus strain NCCP-43388, 48 hours, read-out: Virus replication inhibition efficacy
[3] = tested on: Severe Acute Respiratory Syndrome Coronavirus Type 2; assay: microbe, parasite or virus in culture; conditions: Calu-3, 10 uM, virus strain NCCP-43388, 48 hours, read-out: Virus replication inhibition efficacy

Compound	inhibition at 1 µM (human ANO6 (variant 5)) [%]	inhibition at 0.05 µM (human ANO6 (variant 5)) [%]	viability at 48 h, 1 µM ([1]; 1 μM) [%]	viability at 48 h, 3 µM ([1]; 3 μM) [%]	viability at 48 h, 10 µM [1] [%]	inhibition at 10 µM [2] [%]	inhibition at 10 µM [3] [%]
FC(F)(F)c1ccc2nc(-c3cccc(NC4CCC(c5cccnn5)CC4)c3)[nH]c2c1 (mixture of isomers) [Example 124, N-(4-(pyridazin-3-yl)cyclohexyl)-3-(6-(trifluoromethyl)-1H-benzo[d]imidazol-2-yl)aniline]	30 to 60						
Fc1ccc2nc(-c3cccc(Nc4ncc(-c5cccnn5)cn4)c3)[nH]c2c1 [Example 51, N-(3-(6-fluoro-1H-benzo[d]imidazol-2-yl)phenyl)-5-(pyridazin-3-yl)pyrimidin-2-amine]		30 to 60	> 80	> 80	> 80		
COc1cc2nc(-c3cccc(Nc4ncc(-c5cccnn5)cn4)c3)[nH]c2cc1F [Example 121, N-[3-(6-fluoro-5-methoxy-1H-benzo[d]imidazol-2-yl)phenyl]-5-pyridazin-3-yl-pyrimidin-2-amine]	30 to 60						
CN(Cc1ccccc1)c1ccc2nc(-c3cccc(Nc4ccc(-c5cccnn5)cc4)c3)[nH]c2c1 [Example 280, N-benzyl-N-methyl-2-(3-((4-(pyridazin-3-yl)phenyl)amino)phenyl)-1H-benzo[d]imidazol-6-amine]	> 60	30 to 60				> 60	> 60
Fc1cc2nc(-c3cccc(Nc4ncc(-c5ccccn5)cn4)c3)[nH]c2cc1F [Example 313, N-(3-(5,6-difluoro-1H-benzo[d]imidazol-2-yl)phenyl)-5-(pyridin-2-yl)pyrimidin-2-amine]	> 60	> 60			> 80		
Fc1ccc2nc(-c3cccc(Nc4cnc(-c5ccccn5)cn4)c3)[nH]c2c1 [Example 323, N-(3-(6-fluoro-1H-benzo[d]imidazol-2-yl)phenyl)-5-(pyridin-2-yl)pyrazin-2-amine]	> 60	30 to 60			> 80		
Clc1ccc2nc(-c3cccc(Nc4cnc(-c5ccccn5)cn4)c3)[nH]c2c1 [Example 324, N-(3-(6-chloro-1H-benzo[d]imidazol-2-yl)phenyl)-5-(pyridin-2-yl)pyrazin-2-amine]	> 60	30 to 60			> 80		
FC(F)(F)Oc1ccc2nc(-c3cccc(Nc4cnc(-c5ccccn5)cn4)c3)[nH]c2c1 [Example 325, 5-(pyridin-2-yl)-N-(3-(6-(trifluoromethoxy)-1H-benzo[d]imidazol-2-yl)phenyl)pyrazin-2-amine]	> 60						
FC(F)(F)c1cc2[nH]c(-c3cccc(Nc4cnc(-c5ccccn5)cn4)c3)nc2cn1 [Example 328, 5-(pyridin-2-yl)-N-(3-(6-(trifluoromethyl)-1H-imidazo[4,5-c]pyridin-2-yl)phenyl)pyrazin-2-amine]	> 60						
FC(F)Oc1cc2[nH]c(-c3cccc(Nc4ncc(-c5ccccn5)cn4)c3)nc2cn1 [Example 329, N-(3-(6-(difluoromethoxy)-1H-imidazo[4,5-c]pyridin-2-yl)phenyl)-5-(pyridin-2-yl)pyrimidin-2-amine]	> 60	> 60			50 to 80		
Fc1cc2[nH]c(-c3cccc(Nc4cnc(-c5ccccn5)cn4)c3)nc2cn1 [Example 330, N-(3-(6-fluoro-1H-imidazo[4,5-c]pyridin-2-yl)phenyl)-5-(pyridin-2-yl)pyrazin-2-amine]	> 60				> 80		
FC(F)Oc1cc2[nH]c(-c3cccc(Nc4ccc(-c5cccnn5)cc4)c3)nc2cn1 [Example 331, 3-(6-(difluoromethoxy)-1H-imidazo[4,5-c]pyridin-2-yl)-N-(4-(pyridazin-3-yl)phenyl)aniline]	> 60	30 to 60			> 80		
Fc1cc2nc(-c3cccc(Nc4ncc(-c5cscn5)cn4)c3)[nH]c2cc1F [Example 332, N-(3-(5,6-difluoro-1H-benzo[d]imidazol-2-yl)phenyl)-5-(thiazol-4-yl)pyrimidin-2-amine]	> 60	> 60			> 80		
FC(F)Oc1ccc2nc(-c3cccc(Nc4ccc(-c5cccnn5)cc4)c3)[nH]c2c1 [Example 335, 3-(6-(difluoromethoxy)-1H-benzo[d]imidazol-2-yl)-N-(4-(pyridazin-3-yl)phenyl)aniline]	> 60	> 60					
FC(F)Oc1cc2[nH]c(-c3cccc(Nc4cnc(-c5ccccn5)cn4)c3)nc2cn1 [Example 336, N-(3-(6-(difluoromethoxy)-1H-imidazo[4,5-c]pyridin-2-yl)phenyl)-5-(pyridin-2-yl)pyrazin-2-amine]	> 60	> 60			> 80		
